Measured values: paper PMC3511610 (Pediatric blood & cancer, 2012)
Entries after “also recorded” stand apart in the source; their conditions may differ.

Legend:
[1] = Phase I trial: toxicity, dose-limiting toxicities, MTD; type: in vivo, human (pediatric patients); details: for recommended phase 2 dose, vorinostat part of the combination: with bortezomib
[2] = Bortezomib plasma pharmacokinetics, day 8 cycle 1, three-compartment model; type: in vivo, human (pediatric patients)
NF-κB = NF-κB activity by ELISA in patient PBMCs; type: in vivo, human (pediatric patients)
Grp78 = Grp78 immunoblot in patient PBMCs; type: in vivo, human (pediatric patients); details: three evaluable of seven samples (four degraded); vs pre-treatment
[3] = prior pediatric single agent trials; cited from earlier work
[4] = cited from earlier work
[5] = Pediatric Preclinical Testing Program (PPTP); cited from earlier work
solid tumor = details: Pediatric Preclinical Testing Program (PPTP); cited from earlier work
[6] = no reference given, cited from earlier work
[7] = single agent, children with recurrent or refractory cancer; cited from earlier work
[8] = Vorinostat pharmacokinetics, day 8 cycle 1, noncompartmental
[9] = Mean, n=6, single intravenous dose of 1.3 mg/m^2, day 8 cycle 1, plasma

With CC(C)C[C@H](NC(=O)[C@H](Cc1ccccc1)NC(=O)c1cnccn1)B(O)O [bortezomib, Bortezomib] the “MTD, bortezomib part of the combination” value ([1]; i.v. days 1, 4, 8, 11, with vorinostat 230 mg/m^2/day, bortezomib not escalated) was 1.3 mg/m^2/day, the “Cl (clearance)” value [2, 9] was 9.1 L/hr/m^2 and the “Vc (volume of distribution in the central compartment)” value [2, 9] was 13 L/m^2. For the same molecule, the “plasma concentrations prior to the day 8 dose” value ([2]; cycle 1, dosed every three days, suggests accumulation) was “low plasma concentrations”, the AUC(0-inf) ([2]; human, plasma, iv, 1.3 mg/m2) was 485 ng·h/mL and the AUC(0-t) ([2]; human, plasma, iv, 1.3 mg/m2) was 82 ng·h/mL. The “pretreatment NF-κB activity levels in PBMCs compared to levels 24 hours after bortezomib administration” value (NF-κB; Figure 1, 0 vs 24 hours) was “the same or increased”, the “NF-κB activity in PBMCs after bortezomib treatment” value (NF-κB; PBMCs from solid tumor patients, with vorinostat) was “did not observe a decrease in NF-κB activity” and the “NF-κB activation in PBMCs at 24 hours” value (NF-κB; in approximately half of the patient samples) was “increase in NF-κB activation”. For the same molecule, the “Grp78 protein expression in PBMCs after bortezomib treatment” value (Grp78) was “no induction of Grp78 detected; also recorded: not able to detect Grp78 induction”, the “Dose-limiting toxicities (DLTs)” value [3] was “thrombocytopenia, confusion, and febrile neutropenia associated with hypotension and an elevated creatinine” and the “recommended phase 2 regimen in adults with solid tumors, bortezomib dose” value ([4]; days 1, 4, 8, and 11, with vorinostat) was 1.3 mg/m^2/dose. The “in vitro anti-tumor activity” value [5] was “widespread in vitro anti-tumor activity”, the “in vivo solid tumor activity” value (solid tumor) was “limited to rhabdomyosarcoma, Wilms tumor, osteosarcoma, and medulloblastoma” and the “adult MTD” value [6] was 1.3 mg/m^2/day.

In the case of O=C(CCCCCCC(=O)Nc1ccccc1)NO [vorinostat, Vorinostat], the “MTD, vorinostat part of the combination” value ([1]; PO days 1–5 and 8–12, with bortezomib 1.3 mg/m^2/day days 1, 4, 8, 11) is reported as 230 mg/m^2/day, the “recommended phase 2 dose, vorinostat part of the combination” value ([1]; PO days 1–5 and 8–12 of a 21 day cycle) is reported as 230 mg/m^2/day and the “recommended phase 2 dose, vorinostat part of the combination” value ([1]; orally days 1–5 and 8–12 of a 21 day cycle) is reported as 230 mg/m^2/dose. The DLTs [7] was “neutropenia, thrombocytopenia, and hypokalemia”, the “recommended phase 2 regimen in adults with solid tumors, vorinostat dose” value ([4]; daily for eight days every 21 days, with bortezomib) was 400 mg and the adult recommended dose ([6]; daily) was 400 mg. For the same molecule, the Tmax ([8]; human, serum, po, 180 mg/m^2) was 6 h and the mean apparent clearance ([8]; mean over patients, dose levels 180–300 mg/m^2 oral, day 8 cycle 1) was 198 L/m^2.
